Reference: US8258151B2, “3-aminoimidazo [1,2-A] pyridine derivatives as SGLT inhibitors” (Merck Patent GmbH, priority 2006, dated 2012)

Columns and labels:
SGLT1 = molecular target: T1, SGLT1 (Homo sapiens, UniProt P13866); test: SGLT1 activity measurement: 14C-AMG uptake in BHK cells transfected with SGLT1; assay type: cell-based; conditions: AMG 50 μM, 37° C., 90 min
T1 construct: expressed in transfected cells
T1 sequence (P13866 1-664): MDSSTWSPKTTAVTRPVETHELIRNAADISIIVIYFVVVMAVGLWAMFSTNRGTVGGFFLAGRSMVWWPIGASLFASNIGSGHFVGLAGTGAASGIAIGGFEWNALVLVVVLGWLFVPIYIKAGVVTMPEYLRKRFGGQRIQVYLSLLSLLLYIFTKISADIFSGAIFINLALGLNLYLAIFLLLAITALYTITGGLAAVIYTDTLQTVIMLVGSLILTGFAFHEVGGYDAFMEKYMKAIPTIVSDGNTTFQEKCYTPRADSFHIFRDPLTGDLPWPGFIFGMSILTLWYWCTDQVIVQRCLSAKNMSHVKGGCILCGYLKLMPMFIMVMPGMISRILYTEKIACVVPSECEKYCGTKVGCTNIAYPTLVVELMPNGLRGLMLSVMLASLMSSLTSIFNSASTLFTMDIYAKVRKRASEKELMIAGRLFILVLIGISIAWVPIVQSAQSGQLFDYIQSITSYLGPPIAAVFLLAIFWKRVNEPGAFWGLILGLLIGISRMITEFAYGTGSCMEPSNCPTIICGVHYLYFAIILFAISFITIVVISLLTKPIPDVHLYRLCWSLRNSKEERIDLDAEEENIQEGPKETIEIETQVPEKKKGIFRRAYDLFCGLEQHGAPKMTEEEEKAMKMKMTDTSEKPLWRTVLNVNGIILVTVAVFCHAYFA
Text: (§1) The compounds can be tested on their SGLT inhibition properties by means of BHK cells expressing SGLT1 and SGLT2. The production of the cells and the testing can be carried out as described below.
To construct the SGLT1 expression vector (KL225), the SLC5A1 gene (homologous to NM_000343) was amplified from a cDNA library using standard PCR technology and cloned over NheI/XhoI sites into pcDNA3.1 expression vector (Invitrogen) containing neomycin as a selection marker. In this vector, transcription uses the enhancer/promoter of human cytomegalovirus.
The final vector KL225 together with an additional vector containing a dihydrofolate reductase gene as a selection marker was introduced into cells. Transfection into BHK21 cells (ATCC CCL-10), cultivated in DMEM medium (GIBCO/BRL), supplemented with 10% foetal calf serum (FCS) and 20 mM glutamine, was carried out using calcium phosphate transfections according to Graham, F. L. and van der Ebb, A. J. (1973), Virology 52: 456 with 5-20 μg of uncut plasmids for 10^7 cells. Stable transfectants were selected in medium containing 1 mg/ml of G418 (GIBCO/BRL) and 20-5000 nM methotrexate as final concentration, where only cells which expressed the neomycin gene and overexpressed the dhfr gene were able to grow. After growth for 2-3 weeks, the cells were cloned (0.5 cells/well) and the clones were investigated for SGLT expression in the radioactive uptake assay. […]
(§2) A 96-well cell-based assay was developed and adapted to HTS requirements:
(§3) BHK cells (transfected with SGLT1 or SGLT2) were seeded into 96-well microtitre plates (Cultureplates, Perkin Elmer). After at least 24 h, medium was removed and the cell layer was washed with assay buffer (140 mM NaCl, 2 mM KCl, 1 mM CaCl2, 1 mM MgCl2, 10 mM HEPES, 5 mM Tris, adjusted with 1 M KOH to pH 7.4). After addition of 40 μl of assay buffer, 50 μl of AMG (50 μM for SGLT1 and 2 mM for SGLT2) in the presence or absence of compounds, the cells were incubated in a total volume of 100 μl at 37° C. for 90 min. Supernatant was removed by suction and discarded. The cells were washed and lysed by addition of 50 μl water. After 10 minutes at room temperature 200 μl Microscint 40 (Perkin Elmer) were added. The radioactivity was counted in a Topcount microplate scintillation counter (Perkin Elmer). The non-specific uptake was determined in sodium-free assay buffer (266 mM sucrose, 2 mM KCl, 1 mM CaCl2, 1 mM MgCl2, 10 mM HEPES, 5 mM Tris, adjusted with 1 M KOH to pH 7.4).

SGLT2 = molecular target: T2, SGLT2 (Homo sapiens, UniProt P31639); test: SGLT2 activity measurement: 14C-AMG uptake in BHK cells transfected with SGLT2; assay type: cell-based; conditions: AMG 2 mM, 37° C., 90 min
T2 construct: expressed in transfected cells
T2 sequence (P31639 1-672): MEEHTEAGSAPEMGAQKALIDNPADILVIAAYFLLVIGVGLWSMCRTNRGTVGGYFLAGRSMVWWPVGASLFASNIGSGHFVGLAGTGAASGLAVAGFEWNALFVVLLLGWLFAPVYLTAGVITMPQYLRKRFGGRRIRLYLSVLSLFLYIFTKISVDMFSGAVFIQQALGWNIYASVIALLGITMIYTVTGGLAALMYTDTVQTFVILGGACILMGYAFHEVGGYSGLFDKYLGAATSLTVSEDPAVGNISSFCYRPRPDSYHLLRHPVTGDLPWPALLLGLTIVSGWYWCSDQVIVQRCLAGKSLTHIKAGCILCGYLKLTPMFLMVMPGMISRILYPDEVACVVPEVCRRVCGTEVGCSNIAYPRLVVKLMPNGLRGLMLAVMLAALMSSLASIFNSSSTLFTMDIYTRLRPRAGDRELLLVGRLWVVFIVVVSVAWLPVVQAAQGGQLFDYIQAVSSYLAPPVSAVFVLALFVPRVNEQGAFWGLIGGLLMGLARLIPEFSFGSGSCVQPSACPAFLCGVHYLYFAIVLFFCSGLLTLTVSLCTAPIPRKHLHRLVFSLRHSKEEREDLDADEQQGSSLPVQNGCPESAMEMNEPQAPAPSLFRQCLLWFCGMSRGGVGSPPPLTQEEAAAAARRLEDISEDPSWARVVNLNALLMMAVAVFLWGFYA
Text: as §1
To construct the SGLT2 expression vector (KL224), the SLC5A2 gene (homologous to NM_003041) was amplified from a cDNA library using standard PCR technology and cloned over NheI/XhoI sites into PCI-neo expression vector (Promega) containing neomycin as a selection marker. In this vector, transcription used the enhancer/promoter of human cytomegalovirus and the SV40 polyadenylation signal.
The final vector KL224 together with an additional vector containing a dihydrofolate reductase gene as a selection marker was introduced into cells. Transfection into BHK21 cells (ATCC CCL-10), cultivated in DMEM medium (GIBCO/BRL), supplemented with 10% foetal calf serum (FCS) and 20 mM glutamine, was carried out using calcium phosphate transfections according to Graham, F. L. and van der Ebb, A. J. (1973), Virology 52: 456 with 5-20 μg of uncut plasmids for 10^7 cells. Stable transfectants were selected in medium containing 1 mg/ml of G418 (GIBCO/BRL) and 20-5000 nM methotrexate as final concentration, where only cells which expressed the neomycin gene and overexpressed the dhfr gene were able to grow. After growth for 2-3 weeks, the cells were cloned (0.5 cells/well) and the clones were investigated for SGLT expression in the radioactive uptake assay.
Principally, uptake of ^14C-α-methyl-D-glucopyranoside (AMG) in, for example, Xenopus oocytes injected with the corresponding cRNA has been described (for example Wen-Sen Lee et al. (1994), J. Biol. Chem. 269, 12032-12039; Guofeng You et al. (1995), J. Biol. Chem. 270, 29365-29371).
as §2, §3

| SMILES | IC50 (SGLT1) [nM] | IC50 (SGLT2) [nM] |
| --- | --- | --- |
| COc1cccc(OCC(N)=O)c1-c1nc2ccc(F)cn2c1Nc1c(C)cccc1C [Compound A1, 2-[2-(aminocarbonylmethoxy)-6-methoxyphenyl]-3-(2,6-dimethylphenylamino)-6-fluoroimidazo[1,2-a]pyridine] | 1000 to 10000 | 10 to 1000 |
| Cc1cccc(C)c1Nc1c(-c2c(C)cccc2OCC(N)=O)nc2ccc(F)cn12 [Compound A2, 2-[2-(aminocarbonylmethoxy)-6-methylphenyl]-3-(2,6-dimethylphenylamino)-6-fluoroimidazo[1,2-a]pyridine] | 1000 to 10000 | 10 to 1000 |
| Cc1cccc(C)c1Nc1c(-c2c(Cl)cccc2OCC(N)=O)nc2ccc(F)cn12 [Compound A3, 2-[2-(aminocarbonylmethoxy)-6-chlorophenyl]-3-(2,6-dimethylphenylamino)-6-fluoroimidazo[1,2-a]pyridine] | 1000 to 10000 | 10 to 1000 |
| Cc1cccc(C)c1Nc1c(-c2ccccc2OCC(N)=O)nc2ccccn12 [Compound A4, 2-[2-(Aminocarbonylmethoxy)phenyl]-3-(2,6-di-methylphenylamino)imidazo[1,2-a]pyridine] | > 10000 | 10 to 1000 |
| NC(=O)COc1ccccc1-c1nc2ccccn2c1Nc1c(Cl)cccc1Cl [Compound A5, 2-[2-(Aminocarbonylmethoxy)phenyl]-3-(2,6-di-chlorophenylamino)imidazo[1,2-a]pyridine] | > 10000 | 10 to 1000 |
| Cc1cccc(Cl)c1Nc1c(-c2ccccc2OCC(N)=O)nc2ccccn12 [Compound A6, 2-[2-(Aminocarbonylmethoxy)phenyl]-3-(2-chloro-6-methylphenylamino)imidazo[1,2-a]-pyridine] | > 10000 | 10 to 1000 |
| Cc1cccc(C(C)C)c1Nc1c(-c2ccccc2OCC(N)=O)nc2ccccn12 [Compound A7, 2-[2-(Aminocarbonylmethoxy)phenyl]-3-(2-isopropyl-6-methylphenylamino)imidazo-[1,2-a]pyridine] | > 10000 | 1000 to 10000 |
| Cc1cccc(C)c1Nc1c(-c2ccccc2OCC(N)=O)nc2c(C)cccn12 [Compound A8, 2-[2-(Aminocarbonylmethoxy)phenyl]-3-(2,6-di-methylphenylamino)-8-methylimidazo[1,2-a]-pyridine] | > 10000 | 1000 to 10000 |
| Cc1cccc(C)c1Nc1c(-c2ccccc2OCC(N)=O)nc2cccc(C)n12 [Compound A9, 2-[2-(Aminocarbonylmethoxy)phenyl]-3-(2,6-di-methylphenylamino)-5-methylimidazo[1,2-a]-pyridine] | > 10000 | 10 to 1000 |
| Cc1cccc(Cl)c1Nc1c(-c2ccccc2OCC(N)=O)nc2cccc(C)n12 [Compound A10, 2-[2-(Aminocarbonylmethoxy)phenyl]-3-(2-chloro-6-methylphenylamino)-5-methyl-imidazo[1,2-a]pyridine] | 1000 to 10000 | 10 to 1000 |
| Cc1cccc2nc(-c3ccccc3OCC(N)=O)c(Nc3c(Cl)cccc3Cl)n12 [Compound A11, 2-[2-(Aminocarbonylmethoxy)phenyl]-3-(2,6-di-chlorophenylamino)-5-methylimidazo[1,2-a]-pyridine] | 1000 to 10000 | 10 to 1000 |
| Cc1cccc(C)c1Nc1c(-c2ccccc2OCC(N)=O)nc2cccc(Cl)n12 [Compound A12, 2-[2-(Aminocarbonylmethoxy)phenyl]-3-(2,6-dimethylphenylamino)-5-chloroimidazo[1,2-a]-pyridine] | – | 1000 to 10000 |
| CCc1cccc2nc(-c3ccccc3OCC(N)=O)c(Nc3c(C)cccc3C)n12 [Compound A13, 2-[2-(Aminocarbonylmethoxy)phenyl]-3-(2,6-dimethylphenylamino)-5-ethylimidazo[1,2-a]-pyridine] | 1000 to 10000 | 10 to 1000 |
| COc1ccc(-c2nc3ccccn3c2Nc2c(C)cccc2C)c(OCC(N)=O)c1 [Compound A14, 2-[2-(Aminocarbonylmethoxy)-4-methoxy-phenyl]-3-(2,6-dimethylphenylamino)imidazo-[1,2-a]pyridine] | > 10000 | 10 to 1000 |
| Cc1cccc(C)c1Nc1c(-c2c(C)cc(OCCN(C)C)cc2OCC(N)=O)nc2ccccn12 [Compound A119, 2-[2-(Aminocarbonylmethoxy)-4-(2-dimethyl-aminoethoxy)-6-methylphenyl]-3-(2,6-dimethyl-phenylamino)imidazo[1,2-a]pyridine] | – | 1000 to 10000 |
| COc1cc(OCC(N)=O)c(-c2nc3ccc(F)cn3c2Nc2c(C)cccc2C)cc1OC [Compound A189, 2-[2-(Aminocarbonylmethoxy)-4,5-dimethoxy-phenyl]-3-(2,6-dimethylphenylamino)-6-fluoro-imidazo[1,2-a]pyridine] | – | 1000 to 10000 |
| COc1cc(C)c(-c2nc3c(O)cccn3c2Nc2c(C)cccc2C)c(OCC(N)=O)c1 [Compound A193, 2-[2-(Aminocarbonylmethoxy)-4-methoxy-6-methylphenyl]-3-(2,6-dimethylphenylamino)-8-hydroxyimidazo[1,2-a]pyridine] | – | 1000 to 10000 |
| CCc1cc(OC)cc(OCC(N)=O)c1-c1nc2ccc(C(=O)O)cn2c1Nc1c(C)cccc1C [Compound A223, 2-[2-(Aminocarbonylmethoxy)-4-methoxy-6-ethylphenyl]-3-(2,6-dimethylphenylamino)-6-carboxyimidazo[1,2-a]pyridine] | – | 1000 to 10000 |
